Reference: US20140173781A1, “METHODS AND COMPOSITIONS FOR PRODUCING AND SELECTING TRANSGENIC WHEAT PLANTS” (PIONEER HI-BRED INTERNATIONAL, INC., priority 2012, published 2014)

Experiments:
Type in all cases: in vivo
[1] = system: maize inbred PHR03 plants; experiment: Glyphosate spray test on plants germinated from T1 mature corn seed; details: glyphosate+surfactant at 2× or 4×
From the text: Immature embryos of maize inbred PHR03 were transformed with the excision vector AGL1/PHP54353, the expression of DsRed was visually confirmed, and T0 plantlets were regenerated as described in Example 5. Before moving the T0 plantlets to soil, the expression of DsRed was again visually confirmed.
To confirm that the natural desiccation process that occurs during seed maturation would in fact allow for the excision of DsRed and resistance to glyphosate, seeds collected from T0 plants crossed with wild-type PHR03 pollen were germinated in soil. By planting seeds straight to soil without any treatments, excision would be a result of natural processes.
Three random events were chosen to be tested by this method. Five mature T1 seeds each from the following events, PHP54353 T0 event numbers 6, 7, and 10 were placed in small pots with Metro Mix soil (Sun Gro Horticulture, McFarland, Calif.) with fertilizer and placed in the greenhouse. After plants had germinated and grown to about 12-18 cm (10-12 days after planting), the plants were then sprayed with glyphosate+surfactant at 2× or 4× concentration (1× is equivalent to what is used in the field). Before spraying, all pots were evenly spaced and positioned to ensure that they would receive an even distribution of glyphosate. The distance between the sprayer nozzle and the apical meristem of the plants was approximately 18 inches. Within 10-12 days, it was visibly evident which plants were not affected by the herbicide and which plants had been severely damaged.

[2] = system: sugarcane plants; experiment: Glyphosate spray test on sugarcane T0 plantlets; details: 4× glyphosate
Protocol: T0 plantlets were then moved to soil and spray tested with 4× glyphosate to confirm excision/glyphosate resistance. […] The final confirmation of stable transformation frequency is determined based on molecular analysis such as PCR and Southern blot hybridization.

[3] = system: tobacco seeds; experiment: Germination of tobacco T1 immature seeds on glyphosate medium; details: 20-50 μM glyphosate; transgenic and nontransgenic tobacco seeds without desiccation treatment
Protocol: (§1) T1 immature seeds from transgenic tobacco plants are isolated, sterilized with 15% Clorox+2 drops of Tween 20 and rinsed with autoclaved water 3 times. Sterilized immature seeds are placed on sterile fiber glass filter paper in a Petri dish. The Petri dish is […] and with 20-50 μM glyphosate for selection. One to 2 weeks later, DsRed expression is checked in the emerging shoots. Immature seeds that have been properly desiccated have very weak or no DsRed expression as the gene is excised via the LoxP sites. […] Immature seeds that successfully underwent gene excision by desiccation will have glyphosate resistance and regenerate on medium containing 20-50 μM glyphosate.

[4] = system: soybean seeds; experiment: Germination of soybean T1 immature seeds on glyphosate medium; details: 20-50 μM glyphosate; transgenic and nontransgenic soybean seeds without desiccation treatment
Protocol: as §1, with “immature pods” for “immature seeds”, “transgenic soybean” for “transgenic tobacco”, “are harvested,” for “are isolated,”, “times. Immature” for “times. Sterilized immature”, “are isolated from sterilized pods and” for “are”, “desiccated will” for “desiccated”

With `O=C(O)CNCP(=O)(O)O` [glyphosate, N-phosphonomethylglycine] the “Glyphosate Spray Test” value ([1]; PHP54353 lab event 6 T1 plants, fraction of plants tolerant) was 2/4 plants tolerant, the “Glyphosate Spray Test” value ([1]; PHP54353 lab event 7 T1 plants) was 5/5 plants damaged and the “Glyphosate Spray Test” value ([1]; PHP54353 lab event 10 T1 plants) was 4/4 plants damaged. The “Glyphosate Spray Test” value ([1]; PHP54353 lab event 13 T1 plants, fraction of plants tolerant) was 2/5 plants tolerant, the “Glyphosate Spray Test” value ([1]; Wild-type PHR03 plants) was 4/4 plants damaged and the Glyphosate Spray Test ([2]; independent T0 events (PHP54561, after excision) from 3 sugarcane cultivars) was “strong glyphosate resistance”. The Glyphosate Spray Test ([2]; plants of 3 nontransgenic sugarcane cultivars) was “completely killed”, the germination [3] was “completely inhibited” and the germination [4] was “completely inhibited”.
